“Also recorded” adds a separate entry of the source.
What was measured:
[1] = test system: HEK293T cells transfected with an empty vector; assay: Calcium flux, HEK293T cells transfected with empty vector; format: cell-based, human; conditions: ATP 10 μM (cell health control)
Procedure: (§1) Human embryonic kidney 293T (HEK293T) cells were cultured in DMEM supplemented with 10% FBS at 37°C in a tissue culture incubator with a humidified atmosphere containing 5% CO2. Cells were plated in 10-cm dishes, and, when they reached 60% to 70% confluency, they were transfected with a pcDNA3.3 vector containing approximately 1 ng of inotocin receptor cDNA or an empty vector as a control using Lipofectamine 2000. Cells were transfected directly into poly-D-lysine–coated 384-well plates and incubated for 48 hours at 37°C. Subsequently, cells were incubated with FLIPR Calcium 4 Assay kit dye for 1 hour in the incubator. The fluorescence (excitation, 488 nm; emission, 530 nm) of the wells was recorded using a Flex Station II 384 (Molecular Devices, San Jose, California, USA), and a dose curve of inotocin (0 to 3 μM) was applied to the wells, in sextuplicate (see below for inotocin peptide synthesis). We calculated the EC50 values using Prism (GraphPad Software version 8) nonlinear regression, 4-parameter logistic curve fit. Dose curves were repeated at least 3 times on independently prepared samples and different days. Results were consistent across replicates, and example dose curves are shown in Fig 1C and S4A Fig. Control experiments are shown in S2–S5 Figs.

[2] = molecular target: O. biroi inotocin receptor (ObiroiItr_A) (Ooceraea biroi, UniProt A0A8F5LPT9); assay: Calcium flux, HEK293T cells transfected with full-length inotocin receptor (FLIPR Calcium 4); format: cell-based; conditions: for calcium response: HEK293T cells expressing full-length itcR; for LogEC50 / HillSlope: variable slope
Chain of O. biroi inotocin receptor (ObiroiItr_A) (A0A8F5LPT9 entry or part of it): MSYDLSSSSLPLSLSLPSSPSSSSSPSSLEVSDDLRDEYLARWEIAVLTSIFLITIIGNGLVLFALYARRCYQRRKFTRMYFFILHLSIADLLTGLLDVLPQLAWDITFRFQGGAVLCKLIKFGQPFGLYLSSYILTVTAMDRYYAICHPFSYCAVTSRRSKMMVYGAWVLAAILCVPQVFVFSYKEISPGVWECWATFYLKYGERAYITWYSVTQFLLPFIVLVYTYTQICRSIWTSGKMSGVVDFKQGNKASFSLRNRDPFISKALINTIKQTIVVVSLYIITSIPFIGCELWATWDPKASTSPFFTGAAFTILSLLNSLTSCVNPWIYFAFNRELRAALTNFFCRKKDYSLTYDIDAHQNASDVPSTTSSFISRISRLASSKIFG
Excerpt: RNA was isolated in TRIzol using the RNeasy (Qiagen, Germantown, Maryland, USA) purification kit with DNAse I (Qiagen) on-column digestion as in [52] from a sample that contained adult ants, larvae, and pupae and reverse-transcribed into cDNA. Full-length cDNAs for the O. biroi inotocin receptor were PCR amplified with primers 5′-[…]-3′ and 5′-[…]-3′, using the Easy-A high fidelity polymerase (Agilent, Santa Clara, California, USA) to generate PCR products with 5′-Kozak consensus sequences and 3′-A overhangs. The inotocin receptor cDNAs were cloned into the pcDNA3.3 TOPO TA cloning vector (Invitrogen, Waltham, Massachusetts, USA) following manufacturer’s guidelines.
The full-length inotocin receptor cDNA sequence that was cloned and used for calcium assays is ObiroiItr_A (GenBank MW660838; for protein sequence, see S1 Fig). We also tested splice variant ObiroiItr_H (GenBank MW660845; for protein sequence, see S1 Fig), which lacks TM4-7, for calcium activity.
as §1, with “[…],” for “and a dose curve of inotocin (0 to 3 μM) was applied to the wells,”, “days.” for “days. Results were consistent across replicates, and example dose curves are shown in Fig 1C and S4A Fig. Control experiments are shown in S2–S5 Figs.”

HEK293 cells = conditions: oxytocin: ref Burger, Fahrenholz et al. 1999, Ma, Hashii et al. 2013, vasopressin: ref Burger; cited from earlier work
Excerpt: (§2) We have edited this last sentence of the abstract to: “Inotocin signaling thereby likely contributes to behavioral individuality an ...

[3] = test system: untransfected HEK293 cell membranes; conditions: ref Jasper, Harrell et al. 1995; cited from earlier work
Excerpt: as §2

beetle inotocin receptor = conditions: CHO cells; ref Stafflinger, Hansen et al. 2008; cited from earlier work
Excerpt: as §2

itcR from Lasius ants = conditions: CHO cells; ref Koto, Motoyama et al. 2019; cited from earlier work
Excerpt: as §2

Compound | EC50 [2] [µM] | calcium responses of untransfected and mock transfected HEK293 cells (HEK293 cells) | binding of radiolabeled peptide [3] | calcium response [2] | other results
Nc1ncnc2c1ncn2[C@@H]1O[C@H](COP(=O)(O)OP(=O)(O)OP(=O)(O)O)[C@@H](O)[C@H]1O [ATP, reference compound] |  |  |  |  | calcium response [1]: are healthy and show calcium responses
N=C(N)NCCC[C@H](NC(=O)[C@@H]1CCCN1C(=O)[C@@H]1CSSC[C@H](N)C(=O)N[C@@H](Cc2ccc(O)cc2)C(=O)N[C@@H](Cc2ccccc2)C(=O)N[C@@H](CCC(N)=O)C(=O)N[C@@H](CC(N)=O)C(=O)N1)C(=O)NCC(N)=O [AVP] | 12.6 | do not show calcium | do not bind |  | calcium response ([2]; listed as vasopressin): also elicit calcium responses; also recorded: also produced calcium transients; LogEC50 ([2]; S4C Fig, AVP, SE 0.09024, 95% CI -5.083 to -4.715): -4.899; HillSlope ([2]; S4C Fig, AVP, SE 0.1917, 95% CI 0.6094 to 1.391): 1
CC[C@H](C)[C@@H]1NC(=O)[C@H](Cc2ccc(O)cc2)NC(=O)[C@@H](N)CSSC[C@@H](C(=O)N2CCC[C@H]2C(=O)N[C@@H](CC(C)C)C(=O)NCC(N)=O)NC(=O)[C@H](CC(N)=O)NC(=O)[C@H](CCC(N)=O)NC1=O [oxytocin] | 0.835 | do not show calcium | do not bind | also elicit calcium responses; also recorded: also produced calcium transients | HillSlope ([2]; S4B Fig, oxytocin, SE 0.05165, 95% CI 0.5075 to 0.7181): 0.6128; LogEC50 ([2]; S4B Fig, oxytocin, X data log of Molar_Oxytocin, SE 0.0661, 95% CI -6.213 to -5.944): -6.078; receptor response (beetle inotocin receptor): responds; receptor response (itcR from Lasius ants): respond
NRPCGLTCI [scrambled control peptide, scrambled version of inotocin (…) as negative control with identical amino acid composition] |  |  |  | No Ca^2+ influx is detected | 

Source: publication PMC8244912, “An oxytocin/vasopressin-related neuropeptide modulates social foraging behavior in the clonal raider ant” (PLoS Biology, 2021)
